Test system: A. baumannii
Assay: MIC, broth microdilution in CAMHB supplemented with human serum, read at 100% growth inhibition
Assay type: cell-based, Acinetobacter baumannii
Conditions: Acinetobacter baumannii, ACC00535; CAMHB + 20% HS; read-out: MIC
Description: MIC determinations were performed using the broth microdilution method and in line with CLSI guidelines M07 and M100 (refs. [37],[38]). Bacterial inocula were prepared by diluting a 0.5 McFarland suspension in CAMHB or lysogeny broth (LB) specifically for A. baylyi isolates. […] MIC values of all of the tested antibiotics were read as the lowest compound concentration inhibiting bacterial growth by naked eye or beyond which the OD600 ceased to decrease.

CN1C(=O)[C@H](CCCCN)NC(=O)[C@H](CCCN)NCc2cccnc2Sc2c(Cl)ccc(Cl)c2CNC(=O)[C@@H]1Cc1c[nH]c2ccccc12 [RO7075573]
MIC: 0.12 µg/mL
